The target of one test is full-length human BTK (Homo sapiens (Human), UniProt Q06187). The test can be described thus: BTK IC50 Enzyme Assay (microfluidic off-chip mobility shift kinase assay).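 Also: Read-out separates phosphorylated peptide product from substrate by their charge-to-mass difference, with IC50 fitted from log inhibitor concentration against percent enzyme activity.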 The format is biochemical. The following applies: Btk Enzymatic IC50 Assay, 90 min at 27 C.
Test [1] concerns the target T1, Btk (Homo sapiens (Human), UniProt Q06187). The test can be described thus: Time Dependent Human Whole Blood IC50 Assay. The format is cell-based. The following applies: read-out: Assay C (IC50).
The target in test [2] is T1, Btk. The test can be described thus: Btk PBMC IC50 Cell Assay (anti-IgM-induced CD69 expression on B cells).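 Also: freshly isolated human PBMCs, IC50 from concentration-response of the share of CD19+ cells expressing CD69 after anti-IgM BCR stimulation.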 The format is cell-based. The conditions noted are these: anti-IgM-induced CD69 expression on CD19 positive cells in human PBMCs.

“And” between values parts separate entries of the source, which are not always exact repeats. Identical values can stand only once.

Sequence of full-length human BTK (Q06187 whole entry): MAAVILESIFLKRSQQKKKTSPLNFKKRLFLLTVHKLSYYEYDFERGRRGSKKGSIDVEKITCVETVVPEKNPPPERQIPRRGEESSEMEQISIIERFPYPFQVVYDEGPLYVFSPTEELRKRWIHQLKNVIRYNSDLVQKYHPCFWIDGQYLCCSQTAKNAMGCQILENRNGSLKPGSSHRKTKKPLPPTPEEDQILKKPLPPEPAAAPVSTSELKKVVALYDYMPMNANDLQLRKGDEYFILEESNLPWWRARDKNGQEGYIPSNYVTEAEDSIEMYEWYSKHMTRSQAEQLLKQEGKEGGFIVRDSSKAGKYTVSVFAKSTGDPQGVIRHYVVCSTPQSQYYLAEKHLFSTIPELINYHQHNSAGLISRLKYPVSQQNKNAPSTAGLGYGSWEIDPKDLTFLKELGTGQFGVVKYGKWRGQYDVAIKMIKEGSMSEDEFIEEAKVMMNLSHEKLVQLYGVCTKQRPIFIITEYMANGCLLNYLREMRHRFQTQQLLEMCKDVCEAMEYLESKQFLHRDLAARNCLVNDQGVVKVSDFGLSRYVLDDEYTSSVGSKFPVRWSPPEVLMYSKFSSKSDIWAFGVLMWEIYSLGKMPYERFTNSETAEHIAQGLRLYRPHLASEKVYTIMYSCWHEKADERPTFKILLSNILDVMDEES
T1 sequence (Q06187 whole entry): as above

For the compound `Cc1nn(C)c(C)c1-c1nc2c(-c3ccc4c(c3)CCCC[C@H]4NC(=O)c3noc(C4(C)CC4)n3)ccnc2[nH]1` [Compound 12, 5-(1-Methyl-cyclopropyl)-[1,2,4]oxadiazole-3-carboxylic acid {(R)-2-[2-(1,3,5-trimethyl-1H-pyrazol-4-yl)-3H-imidazo[4,5-b]pyridin-7-yl]-6,7,8,9-tetrahydro-5H-benzocyclohepten-5-yl}-amide], the concentration for half-maximal inhibition (IC50) was under 1 nM at full-length human BTK, 1 to 10 nM on Btk [1] and 1 to 10 nM at Btk [2].

As to `Cc1c(-c2nc3c(-c4ccc5c(c4)CCCC[C@H]5NC(=O)c4noc(C5(C)CC5)n4)ccnc3[nH]2)cnn1C(C)C` [Compound 24, 5-(1-Methyl-cyclopropyl)-[1,2,4]oxadiazole-3-carboxylic acid {(R)-2-[2-(1-isopropyl-5-methyl-1H-pyrazol-4-yl)-3H-imidazo[4,5-b]pyridin-7-yl]-6,7,8,9-tetrahydro-5H-benzocyclohepten-5-yl}-amide], the IC50 is under 1 nM on full-length human BTK, 1 to 10 nM at Btk [1] and 1 to 10 nM on Btk [2].

With `Cc1c(-c2nc3c(-c4ccc5c(c4)CCCCC5NC(=O)c4nc(C5(C)CC5)no4)ccnc3[nH]2)cnn1C(C)C` (stereo not drawn) [Compound 26, 3-(1-Methyl-cyclopropyl)-[1,2,4]oxadiazole-5-carboxylic acid {2-[2-(1-isopropyl-5-methyl-1H-pyrazol-4-yl)-3H-imidazo[4,5-b]pyridin-7-yl]-6,7,8,9-tetrahydro-5H-benzocyclohepten-5-yl}-amide], the IC50 was in the range of 1 to 10 nM at full-length human BTK, 10 to 100 nM on Btk [1] and 1 to 10 nM against Btk [2].

`Cc1nn(C(C)C)c(C)c1-c1nc2c(-c3ccc4c(c3)CCCC[C@H]4NC(=O)c3noc(C4(C)CC4)n3)ccnc2[nH]1` [Compound 33, 5-(1-Methyl-cyclopropyl)-[1,2,4]oxadiazole-3-carboxylic acid {(R)-2-[2-(1-isopropyl-3,5-dimethyl-1H-pyrazol-4-yl)-3H-imidazo[4,5-b]pyridin-7-yl]-6,7,8,9-tetrahydro-5H-benzocyclohepten-5-yl}-amide]: the 50% inhibitory concentration (IC50) was under 1 nM at full-length human BTK, 1 to 10 nM at Btk [1] and 1 to 10 nM against Btk [2].

On to `Cn1cc(-c2nc3c(-c4ccc5c(c4)CCCC[C@H]5NC(=O)c4cc(C5(C)CC5)on4)ccnc3[nH]2)cn1` [Compound 56, 5-(1-Methyl-cyclopropyl)-isoxazole-3-carboxylic acid {(R)-2-[2-(1-methyl-1H-pyrazol-4-yl)-3H-imidazo[4,5-b]pyridin-7-yl]-6,7,8,9-tetrahydro-5H-benzocyclohepten-5-yl}-amide], for which the 50% inhibitory concentration (IC50) at full-length human BTK was under 1 nM; on Btk [1], 1 to 10 nM; at Btk [2] it was 1 to 10 nM.

Regarding `Cc1nn(C)c(C)c1-c1nc2c(-c3ccc4c(c3)CCCCC4NC(=O)c3cc(C(C)(C)C)on3)ccnc2[nH]1` (stereo not drawn) [Compound 70], the IC50 on full-length human BTK fell in the range of 1 to 10 nM; on Btk [1] it was 10 to 100 nM; at Btk [2], 1 to 10 nM.

As for `Cc1nn(C)c(C)c1-c1nc2nccc(-c3ccc4c(c3)CCCC[C@H]4NC(=O)c3cc(C(C)(C)C)on3)c2[nH]1` [Compound 72], the half-inhibitory concentration (IC50) was under 1 nM on full-length human BTK, 10 to 100 nM on Btk [1] and 1 to 10 nM on Btk [2].

In the case of `Cc1nn(C)c(C)c1-c1nc2c(-c3ccc4c(c3)CCC[C@H]4NC(=O)c3nc(C(C)(C)C)no3)ccnc2[nH]1` [Compound 74, 3-tert-butyl-N-[(1R)-6-[2-(1,3,5-trimethyl-1H-pyrazol-4-yl)-3H-imidazo[4,5-b]pyridin-7-yl]-1,2,3,4-tetrahydronaphthalen-1-yl]-1,2,4-oxadiazole-5-carboxamide], the IC50 on full-length human BTK is under 1 nM; at Btk [1], 10 to 100 nM; on Btk [2], 1 to 10 nM.

Turning to `Cc1nn(C(C)C)cc1-c1nc2nccc(-c3ccc4c(c3)CCCC[C@H]4NC(=O)c3nnc(C(C)(C)C)o3)c2[nH]1` [Compound 78, 5-tert-butyl-N-[(5R)-2-{2-[3-methyl-1-(propan-2-yl)-1H-pyrazol-4-yl]-1H-imidazo[4,5-b]pyridin-7-yl}-6,7,8,9-tetrahydro-5H-benzo[7]annulen-5-yl]-1,3,4-oxadiazole-2-carboxamide], the half-maximal inhibitory concentration (IC50) at full-length human BTK is under 1 nM; at Btk [1] it was 1 to 10 nM; at Btk [2] it was 1 to 10 nM.

With `Cc1c(-c2nc3nccc(-c4ccc5c(c4)CCCC[C@H]5NC(=O)c4nnc(C(C)(C)C)o4)c3[nH]2)cnn1C1CCOCC1` [Compound 79, 5-tert-butyl-N-[(5R)-2-{2-[5-methyl-1-(oxan-4-yl)-1H-pyrazol-4-yl]-1H-imidazo[4,5-b]pyridin-7-yl}-6,7,8,9-tetrahydro-5H-benzo[7]annulen-5-yl]-1,3,4-oxadiazole-2-carboxamide], the half-inhibitory concentration (IC50) on full-length human BTK was under 1 nM; on Btk [1], 10 to 100 nM and 1 to 10 nM; on Btk [2], 1 to 10 nM.

`CC(C)n1cc(-c2nc3nccc(-c4ccc5c(c4)CCCC[C@@H]5NC(=O)c4nc(C(C)(C)C)no4)c3[nH]2)cn1` [Compound 81, 3-tert-butyl-N-[(5S)-2-{2-[1-(propan-2-yl)-1H-pyrazol-4-yl]-1H-imidazo[4,5-b]pyridin-7-yl}-6,7,8,9-tetrahydro-5H-benzo[7]annulen-5-yl]-1,2,4-oxadiazole-5-carboxamide]: the values for the concentration for half-maximal inhibition (IC50) at full-length human BTK, at Btk [1] and against Btk [2] were 1 to 10 nM, 10 to 100 nM and 10 to 100 nM, respectively.

As to `CC(C)(C)c1noc(C(=O)NC2CCCCc3cc(-c4ccnc5[nH]c(-c6cnn(C7CC7)c6)nc45)ccc32)n1` (stereo not drawn) [Compound 83, 3-tert-butyl-N-{2-[2-(1-cyclopropyl-1H-pyrazol-4-yl)-3H-imidazo[4,5-b]pyridin-7-yl]-6,7,8,9-tetrahydro-5H-benzo[7]annulen-5-yl}-1,2,4-oxadiazole-5-carboxamide], the half-inhibitory concentration (IC50) at full-length human BTK is under 1 nM; at Btk [1], 1 to 10 nM; against Btk [2], 1 to 10 nM.

On to `CCc1cc(-c2nc3nccc(-c4ccc5c(c4)CCCC[C@@H]5NC(=O)c4nnc(C(C)(C)C)o4)c3[nH]2)nn1C` [Compound 89, 5-tert-butyl-N-[(5S)-2-[2-(5-ethyl-1-methyl-1H-pyrazol-3-yl)-1H-imidazo[4,5-b]pyridin-7-yl]-6,7,8,9-tetrahydro-5H-benzo[7]annulen-5-yl]-1,3,4-oxadiazole-2-carboxamide], for which the figures for the concentration for half-maximal inhibition (IC50) on full-length human BTK, on Btk [1] and on Btk [2] were under 1 nM, 1 to 10 nM and 1 to 10 nM, respectively.

`CC(C)n1cc(-c2nc3c(-c4ccc5c(c4)CCCCC5NC(=O)c4cc(C(C)(C)C)on4)ccnc3[nH]2)cn1` (stereo not drawn) [Compound 91, 5-tert-butyl-N-(2-{2-[1-(propan-2-yl)-1H-pyrazol-4-yl]-3H-imidazo[4,5-b]pyridin-7-yl}-6,7,8,9-tetrahydro-5H-benzo[7]annulen-5-yl)-1,2-oxazole-3-carboxamide]: the IC50 at full-length human BTK was under 1 nM; at Btk [1], 1 to 10 nM; against Btk [2], 1 to 10 nM.

Turning to `CC(C)n1cc(-c2nc3c(-c4ccc5c(c4)CCCC[C@H]5NC(=O)c4cc(C(C)(C)C)on4)ccnc3[nH]2)cn1` [Compound 92], the IC50 is under 1 nM on full-length human BTK, 10 to 100 nM at Btk [1] and 1 to 10 nM at Btk [2].

With `Cc1cc(-c2nc3c(-c4ccc5c(c4)CCCC5NC(=O)c4nc(C(C)(C)C)no4)ccnc3[nH]2)nn1C` (stereo not drawn) [Compound 107, 3-tert-Butyl-[1,2,4]oxadiazole-5-carboxylic acid {6-[2-(1,5-dimethyl-1H-pyrazol-3-yl)-3H-imidazo[4,5-b]pyridin-7-yl]-1,2,3,4-tetrahydro-naphthalen-1-yl}-amide], the half-maximal inhibitory concentration (IC50) at full-length human BTK was under 1 nM; on Btk [1] it was 10 to 100 nM; on Btk [2], 10 to 100 nM.

As to `CCc1cc(-c2nc3c(-c4ccc5c(c4)CCCC5NC(=O)c4nc(C(C)(C)C)no4)ccnc3[nH]2)nn1C` (stereo not drawn) [Compound 108, 3-tert-Butyl-[1,2,4]oxadiazole-5-carboxylic acid {6-[2-(5-ethyl-1-methyl-1H-pyrazol-3-yl)-3H-imidazo[4,5-b]pyridin-7-yl]-1,2,3,4-tetrahydro-naphthalen-1-yl}-amide], the 50% inhibitory concentration (IC50) on full-length human BTK is under 1 nM; on Btk [1], 10 to 100 nM; against Btk [2], 10 to 100 nM.

`Cc1c(-c2nc3c(-c4ccc5c(c4)CCCC5NC(=O)c4nc(C(C)(C)C)no4)ccnc3[nH]2)cnn1C` (stereo not drawn) [Compound 111, 3-tert-Butyl-[1,2,4]oxadiazole-5-carboxylic acid {6-[2-(1,5-dimethyl-1H-pyrazol-4-yl)-3H-imidazo[4,5-b]pyridin-7-yl]-1,2,3,4-tetrahydro-naphthalen-1-yl}-amide]: the figures for the half-inhibitory concentration (IC50) at full-length human BTK, on Btk [1] and on Btk [2] were 1 to 10 nM, over 100 nM and 1 to 10 nM, respectively.

On to `Cc1nn(C)c(C)c1-c1nc2c(-c3ccc4c(c3)CCCCC4NC(=O)c3nnc(C(C)(C)C)o3)ccnc2[nH]1` (stereo not drawn) [Compound 116, 5-tert-Butyl-[1,3,4]oxadiazole-2-carboxylic acid {2-[2-(1,3,5-trimethyl-1H-pyrazol-4-yl)-3H-imidazo[4,5-b]pyridin-7-yl]-6,7,8,9-tetrahydro-5H-benzocyclohepten-5-yl}-amide], for which the half-inhibitory concentration (IC50) at full-length human BTK lay within 1 to 10 nM; on Btk [1] it was 10 to 100 nM; against Btk [2], 1 to 10 nM.

In the case of `Cc1nn(C(C)C)cc1-c1nc2c(-c3ccc4c(c3)CCCCC4NC(=O)c3nnc(C(C)(C)C)o3)ccnc2[nH]1` (stereo not drawn) [Compound 118, 5-tert-Butyl-[1,3,4]oxadiazole-2-carboxylic acid {2-[2-(1-isopropyl-3-methyl-1H-pyrazol-4-yl)-3H-imidazo[4,5-b]pyridin-7-yl]-6,7,8,9-tetrahydro-5H-benzocyclohepten-5-yl}-amide], the IC50 on full-length human BTK is under 1 nM; at Btk [1], 1 to 10 nM; at Btk [2], 1 to 10 nM.

For `Cc1c(-c2nc3c(-c4ccc5c(c4)CCCCC5NC(=O)c4nnc(C(C)(C)C)o4)ccnc3[nH]2)cnn1C1CCOCC1` (stereo not drawn) [Compound 120, 5-tert-Butyl-[1,3,4]oxadiazole-2-carboxylic acid (2-{2-[5-methyl-1-(tetrahydro-pyran-4-yl)-1H-pyrazol-4-yl]-3H-imidazo[4,5-b]pyridin-7-yl}-6,7,8,9-tetrahydro-5H-benzocyclohepten-5-yl)-amide], the IC50 at full-length human BTK was under 1 nM; on Btk [1], 1 to 10 nM; on Btk [2], 1 to 10 nM.

A word on the IC50: it is the concentration at which inhibition is half-maximal.
